Results published in ChEMBL document CHEMBL1126754, “Hydroxyurea derivatives as hypoglycemic agents” (1993).

How the values were obtained:
3T3-L1 [1] = experiment: Effect on GLUT 1 glucose transporter expression in 3T3-L1 adipocytes at dose of 30 uM; format: functional, Mus musculus
3T3-L1 [2] = experiment: Effect on GLUT 1 glucose transporter expression in 3T3-L1 adipocytes at dose of 3 uM; format: functional, Mus musculus
3T3-L1 [3] = experiment: Effect on GLUT 1 glucose transporter expression in 3T3-L1 adipocytes at dose of 0.3 uM; format: functional, Mus musculus
Mus musculus [4] = experiment: In vivo ability to lower blood glucose in the ob/ob mouse model at a dose of 25 mg/kg; format: functional
Mus musculus [5] = experiment: In vivo ability to lower blood glucose in the ob/ob mouse model at a dose of 1 mg/kg; format: functional
Mus musculus [6] = experiment: In vivo ability to lower blood glucose in the ob/ob mouse model at a dose of 10 mg/kg; format: functional
Mus musculus [7] = experiment: In vivo ability to lower blood glucose in the ob/ob mouse model at a dose of 5 mg/kg; format: functional

| Structure (SMILES) | Effect (3T3-L1 [1]) [%] | Effect (3T3-L1 [2]) [%] | Effect (3T3-L1 [3]) [%] | Glucose normalisation (Mus musculus [7]) [%] | further results |
| --- | --- | --- | --- | --- | --- |
| Cc1oc(-c2ccccc2)nc1CCOc1ccc(CN(O)C(N)=O)cc1 | 140.6 | 109.8 | 97 | – | – |
| Cc1oc(-c2ccccc2)nc1CCOc1ccc(Cn2oc(=O)[nH]c2=O)cc1 | 142.3 | 130.6 | 109.7 | – | Glucose normalisation (Mus musculus [4]): 97%; Glucose normalisation (Mus musculus [5]): 45%; Glucose normalisation (Mus musculus [6]): 100% |
| CNC(=O)N(O)Cc1ccc(OCCc2nc(-c3ccccc3)oc2C)cc1 | – | – | – | 25 | – |
| COC(=O)ON(Cc1ccc(OCCc2nc(-c3ccccc3)oc2C)cc1)C(N)=O | 164.5 | 113 | 90.5 | 80 | Glucose normalisation (Mus musculus [4]): 100%; Glucose normalisation (Mus musculus [5]): 28%; Glucose normalisation (Mus musculus [6]): 77% |
| Cc1oc(-c2ccccc2)nc1CCOc1ccc(CN(OC(=O)Oc2ccccc2)C(N)=O)cc1 | – | – | – | 25 | – |
| CCOC(=O)ON(Cc1ccc(OCCc2nc(-c3ccccc3)oc2C)cc1)C(N)=O | – | – | – | 52 | – |
| CCCCCc1ccc(C(=O)N[C@H]2N=C(c3ccccc3)c3ccccc3N(C)C2=O)cc1 | – | – | – | 50 | – |
| CC1(COc2ccc(CC3SC(=O)NC3=O)cc2)CCCCC1 (configuration not stated) [CIGLITAZONE] | 151.3 | – | – | – | – |
| CNC(=O)N(Cc1ccc(OCCc2nc(-c3ccccc3)oc2C)cc1)OC(=O)OC | – | – | – | 25 | – |
